Test results published in US8476197B2, “Aminopropenoates as fungicides” (priority 2009, dated 2013).
Like-named read-outs stand apart in the source and are kept apart here. Marks after values point to notes of the source that are not given here. Values belong to the compound of their own block, whether it stands above or below them.

Experiments:
[1] = preparation examples, HPLC method ([a], [b] or [c]) not stated
Myzus persicae = details: spray on Chinese cabbage leaf-disks, 500 g/ha, after 6 days
Phaedon cochleariae = details: spray on Chinese cabbage leaf-disks, 500 g/ha, after 7 days
Boophilus microplus = Boophilus microplus test (injection); assay type: in vivo; details: injection into adult engorged female ticks, 20 μg/animal, after 7 days
Description: Boophilus microplus—Test Injection)
• Solvent: dimethyl sulfoxide
Five adult engorged female ticks (Boophilus microplus) are injected with 1 μl compound solution into the abdomen. Ticks are transferred into replica plates and incubated in a climate chamber for a period of time. Egg deposition of fertile eggs is monitored. […] 100% means that all eggs are infertile; 0% means that all eggs are fertile.

SMILES: CC(C)NC(=O)/C(C#N)=C(\NC(C)c1nccs1)c1sccc1Br (stereo not shown)
chromatographic logP [1]: 3.11

SMILES: CNC(=O)C(C#N)=C(NC(C)C1CC1)c1cccnc1Cl (mixture of isomers) [Compound 1244]
activity (mortality) (Myzus persicae): 100%

SMILES: CCOC(=O)C(C#N)=C(NC(C)c1nccs1)c1ncc(C(F)(F)F)cc1Cl (racemic) [Compound 40]
activity (mortality) (Phaedon cochleariae): 83%
Log P (pH 2.7): 3.37^[a]

SMILES: CCOC(=O)C(C#N)=C(NC(C)c1nccs1)c1cccnc1SC (racemic) [Compound 62]
activity (mortality) (Myzus persicae): 100%
Log P (pH 7.5): 2.73

SMILES: CCOC(=O)C(C#N)=C(NC1CCCNC1=O)c1cccnc1Cl (racemic) [Compound 239]
activity (mortality; 100% means all eggs infertile) (Boophilus microplus): 100%
Log P (pH 2.3): 1.67
Log P (pH 7.5): 1.6

SMILES: CCC1CC1N/C(=C/C#N)c1cccnc1Cl (stereo not shown) [3-(2-chloropyridin-3-yl)-3-[(2-ethylcyclopropyl)amino]acrylonitrile]
chromatographic logP [1]: 2.53

SMILES: N#CC=C(Cl)c1cccnc1Cl [3-chloro-3-(2-chloropyridin-3-yl)acrylonitrile]
chromatographic logP [1]: 1.94
LogP [1]: 2.03

SMILES: CC(N/C(=C(/C#N)C(=O)NC1CC1)c1cn(C)nc1C(F)F)c1nccs1 (stereo not shown) [(2Z)-2-cyano-N-cyclopropyl-3-[3-(difluoromethyl)-1-methyl-1H-pyrazol-4-yl]-3-{[1-(1,3-thiazol-2-yl)ethyl]amino}acrylamide]
chromatographic logP [1]: 2.04

SMILES: CCNC(=S)/C(C#N)=C(\NC1CC1CC)c1cccnc1Cl (stereo not shown) [(2Z)-3-(2-chloropyridin-3-yl)-2-cyano-N-ethyl-3-[(2-ethylcyclopropyl)amino]-prop-2-enethioamide]
chromatographic logP [1]: 3.87

SMILES: CC(N/C(=C(/C#N)C(=O)O)c1sccc1Br)c1nccs1 (stereo not shown) [(2Z)-3-(3-bromo-2-thienyl)-2-cyano-3-{[1-(1,3-thiazol-2-yl)ethyl]amino}acrylic acid]
chromatographic logP [1]: 1.23

SMILES: CSCC(C)NC(=C(C#N)C(=O)OC(C)C)c1cccnc1Cl (stereo not shown) [Compound 597]
activity (mortality) (Myzus persicae): 90%
Log P (pH 7.5): 3.03

SMILES: CCOC(=O)C(C#N)=C(NC(C)C(=O)NC)c1ncc(C(F)(F)F)cc1Cl (stereo not shown) [Compound 600]
activity (mortality) (Myzus persicae): 100%
Log P (pH 2.7): 2.41^[a]

SMILES: CC(C)NC(=O)C(C#N)=C(NC(C)C(C)C)c1cccnc1Cl (stereo not shown) [Compound 957]
activity (mortality) (Phaedon cochleariae): 100%
Log P (pH 2.3): 3.37
Log P (pH 7.5): 3.39

SMILES: C#CC(C)(C)NC(=C(C#N)C(=O)OC)c1cccnc1Cl [Compound 1028]
activity (mortality) (Phaedon cochleariae): 83%
Log P (pH 2.7): 2.23^[a]

SMILES: CCOC(=O)C(C#N)=C(NC(C)C(C)C)c1cccnc1-c1ccc(Cl)c(Cl)c1 (stereo not shown) [Compound 1475]
activity (mortality) (Phaedon cochleariae): 100%
Log P (pH 2.3): 4.56^[c]; 4.56^[b]
Log P (pH 7.5): 4.56^[c]; 4.56^[b]

SMILES: CCOC(=O)C(C#N)=C(NC(C)C(C)C)c1cccnc1-c1cncnc1 (stereo not shown) [Compound 1591]
activity (mortality) (Phaedon cochleariae): 100%
Log P (pH 7.5): 2.42

SMILES: CCNC(=O)C(C#N)=C(Nc1ccccc1SC)c1cccnc1Cl [Compound 1616]
Log P (pH 2.3): 2.85
Log P (pH 7.5): 2.82

Log P (pH 2.3): 3.39
Log P (pH 7.5): 3.41
SMILES: CCOC(=O)C(C#N)=C(NC(C)C(C)C)c1ccc(Cl)nc1 (stereo not shown) [Compound 1617]

SMILES: CC(C)C(C)NC(=C(C#N)C(=O)N1CCSC1)c1cccnc1Cl (stereo not shown) [Compound 1618]
Log P (pH 2.7): 3.1^[a]

Log P (pH 2.7): 1.88^[a]
SMILES: CON=C(C)NC(=O)C(C#N)=C(NC(C)C(C)C)c1cccnc1Cl (stereo not shown) [Compound 1619]

SMILES: CONC(=O)C(C#N)=C(Nc1ccccc1SC)c1cccnc1Cl [Compound 1620]
Log P (pH 2.3): 2.19
Log P (pH 7.5): 1.96

Log P (pH 2.7): 3.78^[a]
SMILES: CCOC(=O)C(C#N)=C(NC1CCC1)c1ccnc(C(F)(F)F)c1Cl [Compound 1621]

Log P (pH 2.7): 3.85^[a]
SMILES: CCOC(=O)C(C#N)=C(NC(C)C1CC1)c1ccnc(C(F)(F)F)c1Cl (stereo not shown) [Compound 1622]

Log P (pH 2.7): 3.46^[a]
SMILES: CCOC(=O)C(C#N)=C(NC(C)COC)c1ccnc(C(F)(F)F)c1Cl (stereo not shown) [Compound 1623]

Log P (pH 2.7): 3.62^[a]
SMILES: CCOC(=O)C(C#N)=C(NC(C)C1CCCO1)c1ccnc(C(F)(F)F)c1Cl (stereo not shown) [Compound 1624]

Log P (pH 2.7): 3.33^[a]
SMILES: CCOC(=O)C(C#N)=C(NC(C)c1ccccn1)c1ccnc(C(F)(F)F)c1Cl (stereo not shown) [Compound 1625]

Log P (pH 2.7): 3.46^[a]
SMILES: CCOC(=O)C(C#N)=C(NC(C)c1nccs1)c1ccnc(C(F)(F)F)c1Cl (stereo not shown) [Compound 1626]

Log P (pH 2.7): 4.18^[a]
SMILES: CCOC(=O)C(C#N)=C(NC(C)C(C)C)c1ccnc(C(F)(F)F)c1Cl (stereo not shown) [Compound 1627]

Log P (pH 2.7): 1.3^[a]
SMILES: CNN(C)C(=O)C(C#N)=C(NC(C)C(C)C)c1cccnc1Cl (stereo not shown) [Compound 1628]

SMILES: CCOC(=O)C(C#N)=C(NC(C)C1=NCCS1)c1cccnc1Cl (stereo not shown) [Compound 1629]
Log P (pH 2.7): 2.5^[a]

Log P (pH 2.7): 4.92^[a]
SMILES: CCOC(=O)C(C#N)=C(NC1CCCCC1)c1cc(Cl)sc1Cl [Compound 1630]

Log P (pH 2.7): 3.83^[a]
SMILES: CCOC(=O)C(C#N)=C(NC(C)C(=O)NC1CCCCC1)c1cc(Cl)sc1Cl (stereo not shown) [Compound 1631]

SMILES: CCOC(=O)C(C#N)=C(NC(C)C(=O)NC)c1cc(Cl)sc1Cl (stereo not shown) [Compound 1632]
Log P (pH 2.7): 2.46^[a]

SMILES: CCOC(=O)C(C#N)=C(NC(C)C(C)=NOC)c1cccnc1Cl (stereo not shown) [Compound 1633]
Log P (pH 2.7): 2.8^[a]

SMILES: CCOC(=O)C(C#N)=C(NC1CC1C1CC1)c1cccnc1Cl (stereo not shown) [Compound 1634]
Log P (pH 2.7): 3.13^[a]

SMILES: CCOC(=O)C(C#N)=C(NC1CC1C(C)C)c1cccnc1Cl (stereo not shown) [Compound 1635]
Log P (pH 2.7): 3.53^[a]

SMILES: CCON=C(C)C(C)NC(=C(C#N)C(=O)OCC)c1cccnc1Cl (stereo not shown) [Compound 1636]
Log P (pH 2.7): 3.29^[a]

SMILES: CCOC(=O)C(C#N)=C(NC(C)c1nccn1C)c1cccnc1Cl (stereo not shown) [Compound 1637]
Log P (pH 2.7): 0.93^[a]

SMILES: CCOC(=O)C(C#N)=C(NC(C)c1cc(C(F)(F)F)c(Cl)cn1)c1cccnc1Cl (stereo not shown) [Compound 1638]
Log P (pH 2.7): 3.9^[a]

SMILES: CCOC(=O)C(C#N)=C(NC(C)c1cc(Cl)cc(Cl)n1)c1cccnc1Cl (stereo not shown) [Compound 1639]
Log P (pH 2.7): 3.7^[a]

SMILES: CCOC(=O)C(C#N)=C(NC(C)C1CCC1)c1ccnn1C(F)F (stereo not shown) [Compound 1640]
Log P (pH 2.7): 3.56^[a]

SMILES: CCOC(=O)C(C#N)=C(NC1(CC)CC1)c1cccnc1Cl [Compound 1641]
Log P (pH 2.7): 3.13^[a]

SMILES: CCOC(=O)C(C#N)=C(NC1(CC2CC2)CC1)c1cccnc1Cl [Compound 1642]
Log P (pH 2.7): 3.53^[a]

Log P (pH 2.7): 3.5^[a]
SMILES: CCOC(=O)C(C#N)=C(NC(C)Cc1ccccc1)c1cccnc1Cl (stereo not shown) [Compound 1643]

SMILES: CCOC(=O)C(C#N)=C(NC(C)c1nccs1)c1ccnn1C(F)F (stereo not shown) [Compound 1644]
Log P (pH 2.7): 2.51^[a]

SMILES: CCOC(=O)C(C#N)=C(NC(C)C(C)C)c1ccnn1C(F)F (stereo not shown) [Compound 1645]
Log P (pH 2.7): 3.27^[a]

SMILES: CCOC(=O)C(C#N)=C(NC(C)c1ccccn1)c1ccnn1C(F)F (stereo not shown) [Compound 1646]
Log P (pH 2.7): 2.55^[a]

SMILES: CCOC(=O)C(C#N)=C(NC(C)C1CC1)c1ccnn1C(F)F (stereo not shown) [Compound 1647]
Log P (pH 2.7): 3.01^[a]

Log P (pH 2.7): 3.94^[a]
SMILES: CCOC(=O)C(C#N)=C(NC(C)C1CCC1)c1c(CC)nn(C)c1Cl (stereo not shown) [Compound 1648]

Log P (pH 2.7): 3.8^[a]
SMILES: CCOC(=O)C(C#N)=C(NC(C)c1c(Cl)cccc1Cl)c1cccnc1Cl (stereo not shown) [Compound 1649]

SMILES: CCOC(=O)C(C#N)=C(Cl)c1scc(C)c1Cl [ethyl 3-chloro-3-(3-chloro-4-methyl-2-thienyl)-2-cyanoacrylate]
chromatographic logP [1]: 3.65
LogP [1]: 3.70

SMILES: CCOC(=O)/C(C#N)=C(\NCC(c1ccccc1)C(C)C)c1cccnc1Cl (stereo not shown) [ethyl (2Z)-3-(2-chloropyridin-3-yl)-2-cyano-3-[(3-methyl-2-phenylbutyl)amino]acrylate]
chromatographic logP [1]: 4.21

SMILES: CCOC(=O)/C(C#N)=C(\NCCc1ncc(C(F)(F)F)cc1Cl)c1cccnc1Cl [ethyl (2Z)-3-(2-chloropyridin-3-yl)-3-({2-[3-chloro-5-(trifluoromethyl)pyridin-2-yl]ethyl}amino)-2-cyanoacrylate]
chromatographic logP [1]: 3.57

SMILES: CCOC(=O)/C(C#N)=C(\NC(C)c1ccc(Cl)nc1)c1cccnc1Cl (stereo not shown) [ethyl (2Z)-3-(2-chloropyridin-3-yl)-3-{[1-(6-chloropyridin-3-yl)ethyl]amino}-2-cyanoacrylate]
chromatographic logP [1]: 2.8

SMILES: CCOC(=O)/C(C#N)=C(\N[C@H](C)C(=O)NC)c1scc(C)c1Cl [ethyl (2Z)-3-(3-chloro-4-methyl-2-thienyl)-2-cyano-3-{[(2R)-1-(methylamino)-1-oxopropan-2-yl]amino}acrylate]
chromatographic logP [1]: 3.61

SMILES: CCN/C(=C(/C#N)C(=O)OCC)c1cccnc1-c1ccc(Cl)cc1 [ethyl (2Z)-3-[2-(4-chlorophenyl)pyridin-3-yl]-2-cyano-3-(ethylamino)acrylate]
chromatographic logP [1]: 2.96
